Patent US11229643B2, “Combinations of FGFR4 inhibitors and bile acid sequestrants” (NOVARTIS AG, priority 2016, dated 2022)

How the values were obtained:
[1] = 4-week dog study, ALT and AST; assay type: in vivo
Source text: The maximal increase was 6-fold and ≤2-fold for ALT and AST respectively (relative to pre-dose values), and occurred during week 2 of the study. Generally, there was no further increase in transaminase levels despite continued dosing over the 4-weeks indicating a level of adaptation to these pharmacologically mediated effects.

[2] = Dog cross-over study: plasma miR-122 levels (Taqman, standard curve method); assay type: in vivo, Beagle dogs
Description: Plasma miR-122 levels, a liver enriched microRNA used as biomarker of liver injury (Starkey Lewis P J et al., Clin Pharmacol Ther, 2012, 291-293), were determined. miR-122 is considered as a liver-specific marker.
Small RNA was extracted from 50 μl of plasma by using the miRNeasy/MinElute kit and following the instructions of the manufacturer (Qiagen). Elution of small RNA was realized in 14 μl of nucleic acid-free H2O.
3.2 μl of eluted small RNA was reverse transcribed into cDNA by using the Megaplex RT primer human pool A and B and the Taqman MicorRNA Reverse Transcription kit (Applied Biosystems/Life Technologies, reference 4366596) and following the instructions of the manufacturer.
2.5 μl of cDNA was preamplified by using the Megaplex Preamp primer human pool A and B (Applied Biosystems/Life Technologies, reference 4399201 and 4399233) and the Taqman PreAmp Master mix (Applied Biosystems/Life Technologies, reference 4391128) and following the instructions of the manufacturer.
microRNA miR-122 was amplified from preamplified cDNA by using a commercially available validated Taqman assay (reference 002245) diluted in the Taqman MasterMixII (Applied Biosystems/Life Technologies) and following the instructions of the manufacturer.
The relative quantification of plasmatic microRNA levels was performed using the standard curve method to generate expression values as number of molecules.
Statistical significance of mRNA measurements was assessed using the two-sample unequal variance, two-tailed distribution (hetero-scedastic Student's t-test, Excel). Coefficients of variation with a P value <0.05 were considered to be statistically significant.

advanced HCC = settings: patients with advanced HCC; cited from earlier work
456 kinases = settings: cited from earlier work
[3] = Dog cross-over study of Compound A with or without cholestyramine: serum ALT activity; assay type: in vivo, Beagle dogs; settings: Cpd A 5 mg/kg/day
Description: Male Beagle dogs were obtained from Marshall BioResources (North Rose, N.Y.). For the study, all animals were nave to treatment. All animals used in the study were healthy and suitable for use. The dose volume for Cpd A and its vehicle was 5 mL/kg. For CHO, the dosing aliquot was dispersed in 75 mL total animal drinking water.
For the study, a dosing paradigm was followed with initial loading dose of either vehicle or CHO on the last day of pretest (day −1), and dosing of either vehicle or CHO on days 1-7.
N-(5-cyano-4-((2-methoxyethyl)amino)pyridin-2-yl)-7-formyl-6-((4-methyl-2-oxopiperazin-1-yl)methyl)-3,4-dihydro-1,8-naphthyridine-1(2H)-carboxamide dosing was initiated on day 8, with the second dosing event of each day for either vehicle or CHO. Food was presented to the animals after the second daily dosing event. Animals were not dosed on day 15. Dosing was restarted on day 24 and the dose groups crossed over on day 38-44, with the last day of dosing on day 44.
Clinical observations, twice-weekly body weights, and daily food consumption determinations were performed.
Fecal samples were collected for bile acid (BA) analysis once during pretest and on days 7, 10, 14, 17, 24, 28, 35, 42, and 49.
Plasma was collected from all animals for bile acid profiling during the study, concurrent with clinical pathology and/or toxicokinetic sampling as follows: at approximately 3 hours postdose (post vehicle, CHO or Cpd A, as appropriate) on days 1, 3, 7, 8, 11, 14, 15, 18, 21, 23, 25, 28, 31, 35, 38, 42, 45, 49, and 52. On days 8, 14, 25, and 39 only, samples were collected at predose and approximately 0.5, 1, 3, 7, and 24 hours postdose (post Cpd A dosing). In addition, on day 44, bile acid biomarker samples were collected at 3, 7, and 24 hours postdose (concurrent with the last toxicokinetic blood collection).

[4] = relative to pre-dose values, during week 2 of 4-week dog study

For `COCCNc1cc(NC(=O)N2CCCc3cc(CN4CCN(C)CC4=O)c(C=O)nc32)ncc1C#N` [Compound A, N-(5-cyano-4-((2-methoxyethyl)amino)pyridin-2-yl)-7-formyl-6-((4-methyl-2-oxopiperazin-1-yl)methyl)-3,4-dihydro-1,8-naphthyridine-1(2H)-carboxamide], the “recovery of ALT/AST increases evident” value ([1]; day following cessation of Compound A administration) was ≤ 8 days, the “maximal increase in ALT” value [1, 4] was 6 fold and the “maximal increase in AST” value [1, 4] was ≤ 2 fold. The “increase in miR-122 levels, maximum average” value (from here on “increase … maximum average”) ([2]; recovery period study day 15-23, at day 21, compared with study day 1-7) was ≤ 5.4 fold, the “increase in miR-122 levels, peak” value ([2]; recovery study days 45-52, Group 1 animal 1001, day 49) was ≤ 22.2 fold and the “increase in miR-122 levels, peak” value ([2]; recovery study days 45-52, Group 1 animal 1003, day 49) was ≤ 47.9 fold. For the same compound, the “increase in miR-122 levels, peak” value ([2]; recovery study days 45-52, Group 1 animal 1005, day 49) was ≤ 16.4 fold, the “increase in miR-122 levels, peak” value ([2]; recovery study days 45-52, Group 1 animal 1006, day 49) was ≤ 40.1 fold and the “change in miR122 compared to respective controls, overall” value ([2]; some animals) was “minimal to moderate increases”. The “increase … maximum average” value ([2]; study day 8-14, at day 14, compared with study day 1-7) was ≤ 2.5 fold, the “increase in miR-122 levels, maximum” value ([2]; study days 25-38, animal 2003, at day 38) was ≤ 151 fold and the “increase … maximum average” value ([2]; study days 25-38, animal 2006, at day 31) was ≤ 63 fold. The “increase in miR-122 levels, average” value ([2]; study days 39-42, following the second cross-over) was ≤ 7.8 fold, the clinical activity (advanced HCC) was “promising clinical activity” and the “targets found in kinome wide scan” value (456 kinases) was “FGFR4 was the only target”. For the same compound, the “increase in serum ALT activity” value ([3]; compared with pretest, first dosing period (from day 8)) was 3.5 fold, the “change in serum ALT activity, in general” value ([3]; dogs) was “minimal to moderate increases” and the “increase in serum ALT activity” value ([3]; following the first cross-over) was 6 fold. For the same compound, the “increase in serum ALT activity” value ([3]; following the second cross-over) was 3.5 fold.
